The source of these data is PMC5979531, “Structural Requirements of Alkylglyceryl-L-Ascorbic Acid Derivatives for Melanogenesis Inhibitory Activity” (International Journal of Molecular Sciences, 2018).

The test system of data set [1] is B16 melanoma 4A5 cells. Briefly: Theophylline-stimulated melanogenesis inhibition (melanin content). The data set is classed as cell-based, murine. The settings on record: 72 h; for IC50: theophylline (1 mM)-stimulated B16 melanoma 4A5 cells; for inhibition at 3000 µM / Inhibition (%) of melanogenesis: 3000 µM. As to the method:
(§1) The effects on theophylline-stimulated melanogenesis and viability of B16 melanoma 4A5 cells were examined according to previously described protocols. Briefly, murine B16 melanoma 4A5 cells were seeded into 48-well plates in DMEM. After 24 h of culture, a test compound and theophylline (1 mM) were added and incubated for 72 h. The melanin content and cell viability were then measured. IC50 values were determined graphically.
Inhibition (%) was calculated using the following formula, where A and B indicate the optical density of the vehicle- and test compound-treated groups, respectively, and C indicates cell viability (%) (see below): Inhibition (%) = [(A − B)/A]/(C/100) × 100.

Data set [2] is described as follows: Cell viability of B16 melanoma 4A5 cells. As to conditions: mouse, B16 4A5 cells. The data set is classed as cell-based, murine. As to the method: as §1
The mark [3] stands for this setting: Mus musculus, theophylline-stimulated B16 4A5 cells.
Setting [4] is: theophylline-stimulated B16 4A5 cells.

Consider `Oc1ccc(O)cc1` [Hydroquinone, reference compound], for which the inhibition at 3 µM in data set [1] (Mus musculus, 3 µM, theophylline-stimulated B16 4A5 cells) is 37.4 ± 3.7%. Besides, the inhibition at 10 µM in data set [1] (Mus musculus, 10 µM, theophylline-stimulated B16 4A5 cells) was found to be 59.5 ± 3.7%. In data set [1] (Mus musculus, 30 µM, theophylline-stimulated B16 4A5 cells), the inhibition at 30 µM is 76.3 ± 2.1%. Also, in data set [1] (Mus musculus), the IC50 came out at 8.7 µM. Further, in data set [2] (3 µM), the viability at 72 h, 3 µM was found to be 94.1%. Moreover, in data set [2] (10 µM), the viability at 72 h, 10 µM stood at 85.2%. Also, in data set [2] (30 µM), the viability at 72 h, 30 µM was found to be 64.3%.

For `CCCCCOC1=C(OCC(O)CO)[C@@H]([C@@H](O)CO)OC1=O` (stereo partly drawn) [compound 5, 3-O-(2,3-dihydroxypropyl)-2-O-pentyl-AsA], in data set [1] (setting [3]), the inhibition at 100 µM was -14 ± 9.7%, the inhibition at 300 µM was 29.8 ± 8.1%, the inhibition at 1000 µM amounted to 45.9 ± 1.2% and the inhibition at 3000 µM is 81.9 ± 3.3%. In data set [1] (Mus musculus), this compound came in with an IC50 of 931 µM. Besides, in data set [2], the viability at 72 h, 100 µM was 118%; the viability at 72 h, 300 µM came to 107%; the viability at 72 h, 1000 µM turned out to be 105%; the viability at 72 h, 3000 µM is 78.7%.

As to `CCCOC1=C(OCC(O)CO)[C@@H]([C@@H](O)CO)OC1=O` (stereo partly drawn) [compound 3, 3-O-(2,3-dihydroxypropyl)-2-O-propyl-AsA], in data set [1] (setting [3]), the inhibition at 100 µM was -2.1 ± 5.3%, the inhibition at 300 µM was found to be 8.2 ± 3.2%, the inhibition at 1000 µM was found to be 2.5 ± 7.9% and the inhibition at 3000 µM was found to be 35.9 ± 3.4%. The IC50 in data set [1] (Mus musculus) is greater than 3000 µM. Also, in data set [2], the viability at 72 h, 100 µM is 102%; the viability at 72 h, 300 µM stood at 98.2%; the viability at 72 h, 1000 µM was found to be 94.5%; the viability at 72 h, 3000 µM stood at 95%.

For the compound `CCOC1=C(OCC(O)CO)[C@@H]([C@@H](O)CO)OC1=O` (stereo partly drawn) [compound 2, 3-O-(2,3-dihydroxypropyl)-2-O-ethyl-AsA], in data set [1] (setting [3]), the inhibition at 100 µM was -28.1 ± 3.2%, the inhibition at 300 µM is -2.8 ± 3.6%, the inhibition at 1000 µM is -8.9 ± 2% and the inhibition at 3000 µM was 40.4 ± 8.6%. In data set [1] (Mus musculus), this compound yielded an IC50 greater than 3000 µM. For the same compound, in data set [2], the viability at 72 h, 100 µM stood at 101%; the viability at 72 h, 300 µM stood at 99.7%; the viability at 72 h, 1000 µM was found to be 101%; the viability at 72 h, 3000 µM was found to be 104%.

As to `O=C1O[C@H]([C@@H](O)CO)C(O)=C1OCC(O)CO` (stereo partly drawn) [compound 15, 2-O-(2,3-dihydroxypropyl)-AsA], in data set [1] (setting [3]), the inhibition at 100 µM is -9.7 ± 1.2%, the inhibition at 300 µM was -4.8 ± 1%, the inhibition at 1000 µM is -2.3 ± 1.7% and the inhibition at 3000 µM is -6.1 ± 2.7%. In addition, in data set [1] (Mus musculus), the IC50 was greater than 3000 µM. Moreover, in data set [2], the viability at 72 h, 100 µM was found to be 101%; the viability at 72 h, 300 µM stood at 102%; the viability at 72 h, 1000 µM worked out at 102%; the viability at 72 h, 3000 µM turned out to be 107%.

For the compound `CCCCCOC1=C(OCC(O)CO)C(=O)O[C@@H]1[C@@H](O)CO` (stereo partly drawn) [compound 19, 2-O-(2,3-dihydroxypropyl)-3-O-pentyl-AsA], in data set [1] (setting [3]), the inhibition at 100 µM came out at 14 ± 4.4%, the inhibition at 300 µM came out at 53 ± 1.1%, the inhibition at 1000 µM was 83.1 ± 1.4% and the inhibition at 3000 µM was determined as 97.1 ± 0.9%. This compound registered an IC50 in data set [1] (Mus musculus) of 283 µM. Further, in data set [2], the viability at 72 h, 100 µM worked out at 86.7%; the viability at 72 h, 300 µM was found to be 73.4%; the viability at 72 h, 1000 µM was determined as 54.7%; the viability at 72 h, 3000 µM is 22.5%.

As to `O=C1O[C@H]([C@@H](O)CO)C(O)=C1O[C@H]1O[C@H](CO)[C@@H](O)[C@H](O)[C@H]1O` [2-O-α-D-Glucopyranosyl-AsA, reference compound], the “Inhibition (%) of melanogenesis” value in data set [1] (setting [4]) is reported as “significantly inhibit melanogenesis”. For the same compound, in data set [1] (setting [3]), the inhibition at 1000 µM is -8.9 ± 2.7% and the inhibition at 3000 µM came out at 15 ± 3.5%. This compound also showed a half-maximal inhibitory concentration (IC50) in data set [1] (Mus musculus) greater than 3000 µM. Also, in data set [2], the viability at 72 h, 1000 µM was 107% and the viability at 72 h, 3000 µM was determined as 108%.

As for `CCOC1=C(OCC(O)CO)C(=O)O[C@@H]1[C@@H](O)CO` (stereo partly drawn) [compound 16, 2-O-(2,3-dihydroxypropyl)-3-O-ethyl-AsA], in data set [1] (setting [3]), the inhibition at 100 µM was -4.2 ± 2.3%, the inhibition at 300 µM was -5.4 ± 1.5%, the inhibition at 1000 µM is 12.1 ± 2.2% and the inhibition at 3000 µM is 42 ± 1.4%. This compound also returned an IC50 in data set [1] (Mus musculus) greater than 3000 µM. In data set [2], the viability at 72 h, 100 µM turned out to be 105%; the viability at 72 h, 300 µM was 95.9%; the viability at 72 h, 1000 µM was 95.9%; the viability at 72 h, 3000 µM was 84%.

For `CCCCOC1=C(OCC(O)CO)C(=O)O[C@@H]1[C@@H](O)CO` (stereo partly drawn) [compound 18, 3-O-butyl-2-O-(2,3-dihydroxypropyl)-AsA], in data set [1] (setting [3]), the inhibition at 100 µM was 0.2 ± 4.4%, the inhibition at 300 µM stood at 36.3 ± 2.8%, the inhibition at 1000 µM worked out at 68 ± 2.1% and the inhibition at 3000 µM worked out at 84.1 ± 1.4%. The half-inhibitory concentration (IC50) in data set [1] (Mus musculus) was 473 µM. Further, in data set [2], the viability at 72 h, 100 µM is 99.8%; the viability at 72 h, 300 µM stood at 89.1%; the viability at 72 h, 1000 µM was found to be 78.1%; the viability at 72 h, 3000 µM came to 70.6%.

As for `CCCOC1=C(OCC(O)CO)C(=O)O[C@@H]1[C@@H](O)CO` (stereo partly drawn) [compound 17, 2-O-(2,3-dihydroxypropyl)-3-O-propyl-AsA], in data set [1] (setting [3]), the inhibition at 100 µM was -5.9 ± 3.3%, the inhibition at 300 µM was -3.9 ± 4.1%, the inhibition at 1000 µM is 1.3 ± 4.2% and the inhibition at 3000 µM worked out at 23.2 ± 5.6%. In addition, the half-maximal inhibitory concentration (IC50) in data set [1] (Mus musculus) is greater than 3000 µM. Further, in data set [2], the viability at 72 h, 100 µM turned out to be 98.4%; the viability at 72 h, 300 µM stood at 95.6%; the viability at 72 h, 1000 µM was 92%; the viability at 72 h, 3000 µM came out at 82.9%.

On to `O=C1O[C@H]([C@@H](O)CO)C(O)=C1OP(=O)(O)O` [Magnesium L-ascorbyl-2-phosphate, reference compound], for which the “Inhibition (%) of melanogenesis” value in data set [1] (setting [4]) is given as “significantly inhibit melanogenesis”. Moreover, in data set [1] (setting [3]), the inhibition at 1000 µM worked out at 2.1 ± 4.1% and the inhibition at 3000 µM turned out to be 14.5 ± 1.3%. Further, the IC50 in data set [1] (Mus musculus) is greater than 3000 µM. Further, in data set [2], the viability at 72 h, 1000 µM came out at 126% and the viability at 72 h, 3000 µM is 92.8%.

Consider `O=C1O[C@H]([C@H](O)CO)C(O)=C1O` [Erythrobic acid, reference compound], for which, in data set [1] (setting [3]), the inhibition at 100 µM was -22.9 ± 6.5%, the inhibition at 300 µM was -10.6 ± 4.8%, the inhibition at 1000 µM worked out at 75.8 ± 4.2% and the inhibition at 3000 µM came to 92.6 ± 15.3%. Moreover, in data set [2], the viability at 72 h, 100 µM is 98.7%; the viability at 72 h, 300 µM is 94.8%; the viability at 72 h, 1000 µM was found to be 44.5%; the viability at 72 h, 3000 µM is 29.8%.

Turning to `CCCCOC1=C(OCC(O)CO)[C@@H]([C@@H](O)CO)OC1=O` (stereo partly drawn) [compound 4, 2-O-butyl-3-O-(2,3-dihydroxypropyl)-AsA], in data set [1] (setting [3]), the inhibition at 100 µM is -1.2 ± 0.8%, the inhibition at 300 µM was 20.8 ± 10.6%, the inhibition at 1000 µM worked out at 30.2 ± 5.1% and the inhibition at 3000 µM stood at 58.9 ± 2.7%. Further, in data set [1] (Mus musculus), the IC50 turned out to be 2220 µM. Also, in data set [2], the viability at 72 h, 100 µM came to 94.5%; the viability at 72 h, 300 µM was found to be 97.4%; the viability at 72 h, 1000 µM is 93.9%; the viability at 72 h, 3000 µM worked out at 88.7%.

As to `O=C1O[C@H]([C@@H](O)CO)C(OCC(O)CO)=C1O` (stereo partly drawn) [compound 1, 3-O-(2,3-dihydroxypropyl)-AsA], in data set [1] (setting [3]), the inhibition at 100 µM was -11.8 ± 1.9%, the inhibition at 300 µM is -10.7 ± 1.1%, the inhibition at 1000 µM is -5 ± 2.9% and the inhibition at 3000 µM is 0.5 ± 2.5%. This compound yielded an IC50 in data set [1] (Mus musculus) greater than 3000 µM. In data set [2], the viability at 72 h, 100 µM was 100%; the viability at 72 h, 300 µM is 96.8%; the viability at 72 h, 1000 µM is 100%; the viability at 72 h, 3000 µM was 108%.

The term inhibition denotes the relative decrease from the control value, in per cent. The IC50 is the point on the concentration scale where inhibition reaches its midpoint. One may read the viability as a read-out of living cells in per cent, often relative to untreated cells.
